Target: CXCR7 (Homo sapiens (Human), UniProt P25106)
Assay: PathHunter CHO-K1 CXCR7 β-arrestin assay (agonistic activity)
Assay type: cell-based
Details: β-arrestin recruitment in PathHunter CHO-K1 CXCR7 β-arrestin cells, 90 minutes at 37° C., geometric mean values
How it was run: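 The enzyme-fragment complementation format pairs ProLink-tagged CXCR7 with EA–β-arrestin 2 in CHO-K1 cells, seeded at 5000/well for 24 h and serum-starved in OPTIMEM 3–4 h. Compounds were added in HBSS/20 mM HEPES/0.2% BSA for 90 min at 37 °C, followed by 1 h detection at room temperature and chemiluminescence read-out. EC50 is the geometric mean of several measurements.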

CXCR7, sequence (P25106 whole entry): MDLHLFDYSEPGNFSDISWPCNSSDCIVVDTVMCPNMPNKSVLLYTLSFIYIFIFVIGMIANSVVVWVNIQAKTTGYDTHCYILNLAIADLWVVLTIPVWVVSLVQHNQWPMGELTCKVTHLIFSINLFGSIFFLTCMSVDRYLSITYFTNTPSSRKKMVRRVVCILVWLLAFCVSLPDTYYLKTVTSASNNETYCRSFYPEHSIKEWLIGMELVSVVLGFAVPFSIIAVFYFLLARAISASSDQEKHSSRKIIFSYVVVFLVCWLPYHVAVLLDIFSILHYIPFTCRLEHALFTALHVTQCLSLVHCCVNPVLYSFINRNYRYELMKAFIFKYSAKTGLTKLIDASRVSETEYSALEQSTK
CXCR7, sequence (P32121 whole entry partner): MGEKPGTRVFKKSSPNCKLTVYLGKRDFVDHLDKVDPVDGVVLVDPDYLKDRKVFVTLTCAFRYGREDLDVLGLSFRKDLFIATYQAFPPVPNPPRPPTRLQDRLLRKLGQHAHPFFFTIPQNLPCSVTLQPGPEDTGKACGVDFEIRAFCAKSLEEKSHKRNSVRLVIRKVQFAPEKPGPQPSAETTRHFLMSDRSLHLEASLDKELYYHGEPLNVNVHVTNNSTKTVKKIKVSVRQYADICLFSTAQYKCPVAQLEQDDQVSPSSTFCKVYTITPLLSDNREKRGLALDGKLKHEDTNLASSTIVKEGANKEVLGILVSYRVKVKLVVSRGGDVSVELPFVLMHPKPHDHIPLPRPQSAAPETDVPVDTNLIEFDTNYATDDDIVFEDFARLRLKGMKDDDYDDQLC

| Compound | EC50 [nM] |
| --- | --- |
| CC(C)(C)NCCN(Cc1ccccc1Cl)C(=O)CNc1cccc2c1CN(CC1CC1)CCO2 [Example 91, N-(2-tert-Butylamino-ethyl)-N-(2-chloro-benzyl)-2-(4-cyclopropylmethyl-2,3,4,5-tetrahydro-benzo[f][1,4]oxazepin-6-ylamino)-acetamide] | 8 |
| CC(C)(C)NCCN(Cc1ncccc1Cl)C(=O)CNc1cccc2c1CN(CC1CC1)CCO2 [Example 92, N-(2-tert-Butylamino-ethyl)-N-(3-chloro-pyridin-2-ylmethyl)-2-(4-cyclopropylmethyl-2,3,4,5-tetrahydro-benzo[f][1,4]oxazepin-6-ylamino)-acetamide] | 10 |
| CC(C)(C)NCCN(Cc1ccccc1C(F)(F)F)C(=O)CNc1cccc2c1CN(CC1CC1)CCO2 [Example 93, N-(2-tert-Butylamino-ethyl)-2-(4-cyclopropylmethyl-2,3,4,5-tetrahydro-benzo[f][1,4]oxazepin-6-ylamino)-N-(2-trifluoromethyl-benzyl)-acetamide] | 3 |
| CC(C)(C)NCCN(Cc1ncccc1C(F)(F)F)C(=O)CNc1cccc2c1CN(CC1CC1)CCO2 [Example 94, N-(2-tert-Butylamino-ethyl)-2-(4-cyclopropylmethyl-2,3,4,5-tetrahydro-benzo[f][1,4]oxazepin-6-ylamino)-N-(3-trifluoromethyl-pyridin-2-ylmethyl)-acetamide] | 4 |
